# Experiments:
# Assay type in all cases: in vivo, Sprague-Dawley rats
# [1] = system: STZ-induced mechanical allodynia; test: STZ-induced diabetic neuropathic pain study (Example 7): paw withdrawal threshold with von Frey filaments; conditions: 30 mg/kg p.o. 2 hr prior to each von Frey test
# [2] = system: oxaliplatin-induced mechanical allodynia; test: CIPN model (Example 5): mechanical allodynia, paw withdrawal threshold with von Frey filaments after oxaliplatin; conditions: rat, oxaliplatin 10 mg/kg i.p.; 30 mg/kg p.o. each day of von Frey testing, tested 2 hr post dose
# Method: The aim of this study was to investigate the effect of a single intraplantar treatment with Nanoparticles from Example 1 (NP1B) at the dose of 11 g/L, Nanoparticles from Example 2 (NP2B) at 53 g/L, Nanoparticles from Example 3 (NP20B) at 57 g/L, and Nanoparticles from Example 4 (NP20A) at 59 g/L, each in 20 μL of injection volume, on the mechanical allodynia (as assessed using von Frey) that occurs following systemic administration of oxaliplatin in the rat.
# Experimental subjects: Seventy-two (72) adult male Sprague-Dawley rats were used for this study. […]
# Static mechanical (tactile) allodynia evaluation: Measurement of paw withdrawal threshold (PWT) was achieved using calibrated (force; g) von-Frey monofilaments (Touch-Test Sensory Evaluator; Scientific Marketing Associates) applied to the plantar surface of the hind paw. Withdrawal threshold was determined by increasing and decreasing stimulus intensity and estimated using Dixon's up-down method. […]
# Baseline readings for latency to withdrawal (sec) were assessed on three consecutive days (Day −3, Day −2 and Day −1). […]
# Mechanical allodynia was subsequently re-assessed 2-3 times per week following injection, out to D26 post-oxaliplatin. […]
# [3] = system: oxaliplatin-induced mechanical allodynia; test: CIPN model (Example 6): dose effect, paw withdrawal threshold with von Frey filaments, left (treated) vs right (vehicle) paw; conditions: 30 mg/kg p.o. each day of von Frey testing; on any of the test days
# Excerpt: Animals were allowed to recover from transportation for at least one week before commencing experiments.
# Data is presented as mean±SEM.
smiles,measurement,setting,value
CC(C)C[C@H](CN)CC(=O)O [Pregabalin],PWT levels compared to ‘STZ/Vehicle’ group,[1],significantly different from the ‘STZ/Vehicle’ group on all days tested
same,"PWT, allodynic response (positive control)",[2],rescued the allodynic response and recovered the PWT to the healthy baseline levels
same,PWT levels (both paws) compared to ‘Vehicle/Vehicle’ group (not neuropathic),[3],not significantly different from the ‘Vehicle/Vehicle’ group

# Source: patent publication US20260263374A1, “COMPOSITIONS OF NANOPARTICLES FOR TREATMENT OF NEUROPATHIC PAIN” (NANOBIOTIX S.A., priority 2022, published 2026)
